From patent US20110306641A1, “NOVEL 2,6-SUBSTITUTED-3-NITROPYRIDINE DERIVATIVE, METHOD FOR PREPARING SAME, AND PHARMACEUTICAL PREPARATION INCLUDING SAME” (priority 2008, published 2011)

Assays:
Calvarial cell [1] = assay: Cytotoxicity test (MTT) in osteoblasts (calvarial cells); conditions: 1 μM, 72 hours, vs vehicle control
Experimental: Drugs were diluted to a concentration of 2 μM in α-MEM culture media supplemented with 10% FBS. The vehicle control group was established to contain 0.2% DMSO. 100 μL/well of the diluted drugs were dispensed into 96-well plates to which osteoblasts (calvarial cells) prepared in Experimental Example 1 were then added at a density of 1.0×10^4 cells/100 μL/well. Here, the final compound concentration in the cell culture was 1 μM, and the vehicle control group contained 0.1% DMSO. The cells were cultured in a 5% CO2 inhibitorr at 37° for 72 hours. 25 μL of 3-(4,5-dimethyl-2-thiazolyl)-2,5-diphenyl-2H-tetrazolium bromide (MTT) dissolved in PBS (2 mg/mL) was added to each cell culture 4 hours before the end of culture. After completion of the reaction, the plates were centrifuged, the media were discarded, and 100 μL of formazan was added and dissolved in dimethyl sulfoxide (DMSO). Finally, the absorbance of the developed plates was measured at 540 nm. The cell viability was expressed as % concentration in comparison with the vehicle control group.

MC3T3-E1 cell = assay: Alkaline phosphatase (ALP) activity in MC3T3-E1 cells; type: cell-based; conditions: 3 days; for activity at 1 µM: Mus musculus, 72 h, read-out: ALP activity (1 μM, % of Control) MC3T3-E1 cell
Experimental: (§1) Differentiation and activity of osteoblasts were indirectly evaluated by measuring an ALP activity having a close relationship with osteogenesis.
(§2) Osteoblasts (Calvarial cells) prepared in Experimental Example 1 and MC3T3-E1 cells (available from RIKEN Cell Bank, Japan) were collected in α-MEM supplemented with 10% FBS, followed by cell counting. The cells were dispensed into 24-well cultureware at a density of 2×10^4 cells/well. After culturing of the cells for 24 hours, the culture media were discarded and replaced with fresh media in which test compounds were diluted to a concentration of 1 μM (1 mL/well). In addition, the vehicle control group containing 0.1% DMSO was also treated. Under the conditions where the compounds were treated, the cells were cultured in a 5% CO2 […] at 37° for 3 days. When the experiment was terminated, the supernatant was removed and the cells were washed three times with cold phosphate buffer at 4°. 0.2% Triton X-100 was added to the washed cells which were then subjected to three cycles of freezing at −70° and thawing at room temperature for the complete lysis of cells. The cell extracts were pooled and centrifuged to collect the cell supernatant which was used for the measurement of ALP activity and proteins. The protein concentration was measured using a BCA assay kit (manufactured by Sigma-Aldrich). For the measurement of ALP activity, p-nitrophenylphosphate was added to the cell supernatant which was then incubated at 37° for 30 minutes, and the reaction was terminated with the addition of 50 μL of 0.2N sodium hydroxide. The standard curve was plotted at the absorbance of 405 nm using p-nitrophenol as a standard material and then the absorbance of test materials thus reacted was measured to determine the production amount of p-nitrophenol.
(§3) The ALP activity was calculated by dividing the amount of p-nitrophenol produced from each test material by the protein amount and the reaction time. Therefore, the unit of ALP activity was given in terms of p-nitrophenol/μg protein/min. The results are given in Table 3 where the ALP activity unit of each test material was given in terms of % change through the comparison between the individual test materials and the vehicle control group.

Calvarial cell [2] = assay: Alkaline phosphatase (ALP) activity in osteoblasts (Calvarial cells); type: cell-based, mouse; conditions: 3 days; for activity at 1 µM: Mus musculus, 72 h, read-out: ALP activity (1 μM, % of Control) Calvarial cell
Experimental: as §1, §2, §3

[3] = tested on: osteoclastogenesis (formation of multinucleated osteoclasts); assay: Osteoclastogenesis inhibition via co-culture system (bone marrow cells + osteoblasts, TRAP staining); type: cell-based, mouse; conditions: 7 days co-culture, vs vehicle control; for inhibition at 1 µM: Mus musculus, Osteoclast, 168 h; for Osteoclastogenesis inhibition (%): 1 μM
Experimental: Osteoclastogenesis inhibitory effects of the compounds of the present invention were evaluated via a co-culture system (Reference: Endocrinology 137(1996), 2187 to 2190, E. Jimi et al.). A specific experimental method is as follows.
1) Preparation of Bone Marrow Cells and Osteoblasts
Femur and tibia were aseptically dissected from 6 to 8-week-old male ddY mice to harvest bone marrow cells by a conventional method using a syringe. In brief, tissues were removed from the dissected bone, the bone ends were cut off with scissors, and the bone marrow was isolated by pushing a medium-containing syringe (23G) against the one end of the cut bone. The isolated bone marrow was subjected to repeated piston movement of a syringe such that single cells were obtained (Reference: Endocrinology 123(1988), 2600 to 2602, Takahashi et al.). After removal of red blood cells within the bone marrow, the bone marrow cells recovered by centrifugation were placed in an α-MEM supplemented with 10% fetal bovine serum (FBS), followed by counting of nucleated cells and then were immediately used for a co-culture system.
For the preparation of osteoblasts (Calvarial cells), the cranial bone were aseptically dissected from 1 to 2-day-old neonatal ICR mice and subjected to continuous reaction with a 0.2% collagenase solution to separate osteoblasts. The cell-suspended supernatant was centrifuged to recover osteoblasts which were grown to full confluence in an α-MEM supplemented with 10% FBS and then diluted to a desired cell density for use in the experiment.
2) Osteoclastogenesis Inhibition Experiment Via Co-Culture System
As the medium used for a co-culture system, a differentiation medium with the addition of differentiation factors 1α,25-dihydroxyvitamin D3 (10^−8M) and dexamethasone (10^−8M) to α-MEM supplemented with 10% FBS was used for the induction of osteoclastogenesis. First, the compounds of the present invention dissolved in dimethyl sulfoxide (DMSO) at a concentration of 1 mM were diluted to 2 μM using the above-mentioned differentiation medium. As a vehicle control group, 0.2% (v/v) DMSO was added to the medium. 100 μL/well of each medium was added to 96-well plates. In addition, the above prepared bone marrow cells and osteoblasts were plated onto 96-well plates at a density of 1×10^5 cells/50 μL/well and 3×10^3 cells/50 μL/well, respectively. The total volume/well was 200 μL and the final compound concentration was 1 μM. The control group was 0.1% (v/v) DMSO. The cells were cultured with exchange of the culture media with fresh media containing differentiation factors and test materials (materials containing the compounds of the present invention) at an interval of 2 to 3 days.
7 days after culturing of cells, the formation of multinucleated osteoclasts was confirmed by microscopic examination, the medium was removed from the wells and then the cells were fixed in a 10% phosphate-buffered formalin solution. The degree of formation of mature osteoclasts was measured taking advantage of the characteristics of osteoclasts showing a positive reaction to a tartrate-resistant acid phosphatase (TRAP) staining solution. The TRAP staining solution was prepared in a manner such that naphthol AS-MS phosphate as a substrate and a coloring agent (Fast Red Violet LB salt) were dissolved in N,N-dimethylformamide, and a 0.1N NaHCO3 buffer solution containing 50 mM of tartaric acid was added thereto. Among the TRAP-positive cells under a light microscope, multinucleated osteoclasts having 6 to 7 nuclei were regarded as mature osteoclasts.
The degree of inhibition of osteoclastogenesis was calculated according to the following equation 1. The results are summarized in Table 2 below (Experiments were carried out for 4 wells/experimental group (n=4), and the results are given in terms of mean±standard deviation) […]

O=[N+]([O-])c1ccc(NC(CO)CO)nc1Nc1ccc2[nH]ncc2c1 [Compound 35, 2-(1H-indazol-5-yl)amino-6-[(2-hydroxy-1-hydroxymethyl)-ethylamino]-3-nitropyridine]
Cell viability (%) Calvarial cell (Calvarial cell [1]): 104% | ALP activity (1 μM, % of Control) MC3T3-E1 cell (MC3T3-E1 cell): 123 % of Control

CC(C)CNc1ccc([N+](=O)[O-])c(Nc2ccc3[nH]ncc3c2)n1 [Compound 8, 2-(1H-indazol-5-yl)amino-6-(isobutylamino)-3-nitropyridine]
activity at 1 µM (Calvarial cell [2]): 157% | inhibition at 1 µM [3]: 100% | Cell viability (%) Calvarial cell (Calvarial cell [1]): 96% | activity at 1 µM (MC3T3-E1 cell): 240%

CCN(CCO)c1ccc([N+](=O)[O-])c(Nc2ccc3[nH]ncc3c2)n1 [Compound 11, 2-(1H-indazol-5-yl)amino-6-[(N-ethyl-2-hydroxyethyl)amino]-3-nitropyridine]
ALP activity (1 μM, % of Control) Calvarial cell (Calvarial cell [2]): 143 % of Control | Osteoclastogenesis inhibition (%) [3]: 98% | Cell viability (%) Calvarial cell (Calvarial cell [1]): 105% | ALP activity (1 μM, % of Control) MC3T3-E1 cell (MC3T3-E1 cell): 140 % of Control

O=[N+]([O-])c1ccc(N2CCNCC2)nc1Nc1ccc2[nH]ncc2c1 [Compound 10, 2-(1H-indazol-5-yl)amino-6-(piperazin-1-yl)-3-nitropyridine]
activity at 1 µM (Calvarial cell [2]): 189% | inhibition at 1 µM [3]: 99% | Cell viability (%) Calvarial cell (Calvarial cell [1]): 95% | activity at 1 µM (MC3T3-E1 cell): 124%

2-(1H-indazol-5-yl)amino-6-(2-methyl-4,5-dihydroimidazol-1-yl)amino-3-nitropyridine [Compound 1]
ALP activity (1 μM, % of Control) Calvarial cell (Calvarial cell [2]): 158 % of Control | ALP activity (1 μM, % of Control) MC3T3-E1 cell (MC3T3-E1 cell): 168 % of Control

O=[N+]([O-])c1ccc(N2CCN(CCO)CC2)nc1Nc1ccc2cn[nH]c2c1 [Compound 19, 2-(1H-indazol-6-yl)amino-6-[4-(2-hydroxyethyl)piperazin-1-yl]-3-nitropyridine]
activity at 1 µM (Calvarial cell [2]): 132% | inhibition at 1 µM [3]: 90% | Cell viability (%) Calvarial cell (Calvarial cell [1]): 100%

CN1CCN(c2ccc([N+](=O)[O-])c(Nc3ccc4[nH]ncc4c3)n2)CC1 [Compound 39, 2-(1H-indazol-5-yl)amino-6-(4-methylpiperazin-1-yl)-3-nitropyridine]
activity at 1 µM (Calvarial cell [2]): 159% | inhibition at 1 µM [3]: 80% | Cell viability (%) Calvarial cell (Calvarial cell [1]): 97%

COCC(C)Nc1ccc([N+](=O)[O-])c(Nc2ccc3[nH]ncc3c2)n1 (stereo not drawn) [Compound 22, 2-(1H-indazol-5-yl)amino-6-[(1-methyl-2-methoxy)ethylamino]-3-nitropyridine]
ALP activity (1 μM, % of Control) Calvarial cell (Calvarial cell [2]): 119 % of Control | Osteoclastogenesis inhibition (%) [3]: 100% | Cell viability (%) Calvarial cell (Calvarial cell [1]): 99%

CC(C)Nc1ccc([N+](=O)[O-])c(Nc2ccc3cn[nH]c3c2)n1 [Compound 33, 2-(1H-indazol-6-yl)amino-6-(isopropylamino)-3-nitropyridine]
activity at 1 µM (Calvarial cell [2]): 122% | Cell viability (%) Calvarial cell (Calvarial cell [1]): 97%

O=[N+]([O-])c1ccc(NCc2ccncc2)nc1Nc1ccc2cn[nH]c2c1 [Compound 26, 2-(1H-indazol-6-yl)amino-6-[(4-pyridyl)methylamino]-3-nitropyridine]
activity at 1 µM (Calvarial cell [2]): 113% | inhibition at 1 µM [3]: 78% | Cell viability (%) Calvarial cell (Calvarial cell [1]): 106%

O=[N+]([O-])c1ccc(NN2CCOCC2)nc1Nc1ccc2cn[nH]c2c1 [Compound 24, 2-(1H-indazol-6-yl)amino-6-[(4-morpholin-1-yl)amino]-3-nitropyridine]
ALP activity (1 μM, % of Control) Calvarial cell (Calvarial cell [2]): 107 % of Control | Osteoclastogenesis inhibition (%) [3]: 86% | Cell viability (%) Calvarial cell (Calvarial cell [1]): 110%

CN(C)CCNc1ccc([N+](=O)[O-])c(Nc2ccc3cn[nH]c3c2)n1 [Compound 20, 2-(1H-indazol-6-yl)amino-6-[2-(N,N-dimethylamino)ethylamino]-3-nitropyridine]
activity at 1 µM (Calvarial cell [2]): 119% | inhibition at 1 µM [3]: 90%

O=[N+]([O-])c1ccc(NCc2ccccn2)nc1Nc1ccc2cn[nH]c2c1 [Compound 21, 2-(1H-indazol-6-yl)amino-6-[(2-pyridyl)methylamino]-3-nitropyridine]
activity at 1 µM (Calvarial cell [2]): 115% | Cell viability (%) Calvarial cell (Calvarial cell [1]): 96%

CN1CCN(Nc2ccc([N+](=O)[O-])c(Nc3ccc4cn[nH]c4c3)n2)CC1 [Compound 23, 2-(1H-indazol-6-yl)amino-6-[(4-methylpiperazin-1-yl)amino]-3-nitropyridine]
activity at 1 µM (Calvarial cell [2]): 139% | inhibition at 1 µM [3]: 92% | Cell viability (%) Calvarial cell (Calvarial cell [1]): 98%

CN(C)c1ccc([N+](=O)[O-])c(Nc2ccc3[nH]ncc3c2)n1 [Compound 25, 2-(1H-indazol-5-yl)amino-6-(N,N-dimethylamino)-3-nitropyridine]
activity at 1 µM (Calvarial cell [2]): 128% | inhibition at 1 µM [3]: 81% | Cell viability (%) Calvarial cell (Calvarial cell [1]): 106%

O=[N+]([O-])c1ccc(NCCN2CCOCC2)nc1Nc1ccc2[nH]ncc2c1 [Compound 37, 2-(1H-indazol-5-yl)amino-6-[(2-morpholino)ethylamino]-3-nitropyridine]
activity at 1 µM (Calvarial cell [2]): 126% | Cell viability (%) Calvarial cell (Calvarial cell [1]): 94% | activity at 1 µM (MC3T3-E1 cell): 141%

O=[N+]([O-])c1ccc(NCCCn2ccnc2)nc1Nc1ccc2cn[nH]c2c1 [Compound 49, 2-(1H-indazol-6-yl)amino-6-[(3-imidazol-1-yl)propylamino]-3-nitropyridine]
activity at 1 µM (Calvarial cell [2]): 129% | Cell viability (%) Calvarial cell (Calvarial cell [1]): 95%

O=[N+]([O-])c1ccc(NC2CC2)nc1Nc1ccc2[nH]ncc2c1 [Compound 34, 2-(1H-indazol-5-yl)amino-6-(cyclopropylamino)-3-nitropyridine]
activity at 1 µM (Calvarial cell [2]): 154% | inhibition at 1 µM [3]: 100% | Cell viability (%) Calvarial cell (Calvarial cell [1]): 93%
